# Test results: US6730705B1, “Alkoximino acetic acid amides” (Bayer Aktiengesellschaft, priority 1995, dated 2004)
# Assay: log p (physical constant, Table 7)
# Conditions: E/Z isomer mixture; first of two printed values (x/y)
row,SMILES,log p
1,CON=C(C(=O)NCCc1ccc(OC)c(OC)c1)c1ccc(C)cc1 (mixture of isomers) [Compound 41],2.53
2,CCON=C(C(=O)NCCc1ccc(OC)c(OC)c1)c1ccc(Cl)cc1 (mixture of isomers) [Compound 77],3.07

# Same assay, conditions: E/Z isomer mixture; second of two printed values (x/y)
row,SMILES,log p
1,CON=C(C(=O)NCCc1ccc(OC)c(OC)c1)c1ccc(C)cc1 (mixture of isomers) [Compound 41],2.77
2,CCON=C(C(=O)NCCc1ccc(OC)c(OC)c1)c1ccc(Cl)cc1 (mixture of isomers) [Compound 77],3.34

# Same assay, conditions: physical constant of Table 7
row,SMILES,log p
1,CO/N=C(/C(=O)NCCc1ccc(OC)c(OC)c1)c1ccc(Cl)cc1 [Compound 24],log p: 2.99
2,CON=C(C(=O)NCCc1ccc(OC)c(OC)c1)c1ccc(C)s1 [Compound 73],log p: 2.46
3,CCc1ccc(/C(=N\OC)C(=O)NCCc2ccc(OC)c(OC)c2)cc1 [Compound 81],log p: 2.86
4,CCOc1ccc(/C(=N\OC)C(=O)NCCc2ccc(OC)c(OC)c2)cc1 [Compound 82],log p: 2.59
5,CO/N=C(\C(=O)NCCc1ccc(OC)c(OC)c1)c1ccc(C)c(C)c1 [Compound 91],log p: 3.00
6,CO/N=C(/C(=O)NCCc1ccc(OC)c(OC)c1)c1ccc(Br)cc1 [Compound 96],log p: 2.82
7,CO/N=C(/C(=O)NCCc1ccc(OC)c(OC)c1)c1ccc(F)cc1 [Compound 98],log p: 2.39
8,CO/N=C(/C(=O)NCCc1ccc(OC)c(OC)c1)c1ccc(C)c(C)c1 [Compound 99],log p: 2.75
9,CCO/N=C(/C(=O)NCCc1ccc(OC)c(OC)c1)c1ccc(C)cc1 [Compound 110],log p: 2.85
10,CON=C(C(=O)NCCc1ccc(OC)c(OC)c1)c1ccc2c(c1)CCC2 [Compound 114],log p: 3.01
11,CON=C(C(=O)NCCc1ccc(OC)c(OC)c1)c1ccc2c(c1)CCCC2 [Compound 117],log p: 3.44
12,CCCc1ccc(C(=NOC)C(=O)NCCc2ccc(OC)c(OC)c2)cc1 [Compound 124],log p: 3.25
13,CON=C(C(=O)NCCc1ccc(OC)c(OC)c1)c1ccc(OCc2ccccc2)cc1 [Compound 126],log p: 3.49
14,CCc1ccc(C(=NOC)C(=O)NCCc2ccc(OC)c(OC)c2)s1 [Compound 127],log p: 3.22
15,CCCCc1ccc(C(=NOC)C(=O)NCCc2ccc(OC)c(OC)c2)cc1 [Compound 132],log p: 3.62
16,CCc1ccc(C(=NOC)C(=O)NCCc2ccc(OC)c(OC)c2)s1 [Compound 143],log p: 2.77
17,CCON=C(C(=O)NCCc1ccc(OC)c(OC)c1)c1ccc(Br)cc1 [Compound 146],log p: 3.15

# Assay: log p (physical constant of Table 7)
# Conditions: single isomer (E or Z as listed in Table 7)
row,SMILES,log p
1,CCON=C(C(=O)NCCc1ccc(OC)c(OC)c1)c1ccc2c(c1)CCC2 [Compound 170],log p: 3.25
2,CO/N=C(/C(=O)NCCc1ccc(OC)c(OC)c1)c1ccc(C2CCCCC2)cc1 [Compound 171],log p: 4.03
3,CCON=C(C(=O)NCCc1ccc(OC)c(OC)c1)c1ccc2c(c1)CCCC2 [Compound 173],log p: 3.53
